Data as given in patent US6653081B2, “Methods for monitoring antiretroviral therapy and guiding therapeutic decision in the treatment of HIV/AIDS” (ViroLogic, Inc., priority 2000, dated 2003).
Values joined by “and” are separate entries in the source; they are usually repeats but may differ in a detail not shown here. Equal values may be shown once.

Columns and labels:
RTV-I135T/V245E = assay: Phenotypic susceptibility assay, RTV-I135T/V245E; type: cell-based, HIV-1; conditions: site-directed I135T + V245E
Excerpt: (§1) The resistance test vectors containing a functional luciferase gene cassette were constructed and host cells were transfected with the resistance test vector DNA. The resistant test vectors contained patient-derived reverse transcriptase and protease sequences that were either susceptible or resistant to the antiretroviral agents, such as nucleoside reverse transcriptase inhibitors, (NRTIs) non-nucleoside reverse transcriptase inhibitors […] protease inhibitors. The resistance test vector viral particles produced by transfecting the resistance test vector DNA into host cells, either in the presence or absence of PRIs, were used to infect target host cells grown either in the absence of NRTIs or NNRTIs, or in the presence of increasing concentrations of the drug. The amount of luciferase activity produced in infected target host cells in the presence of varying concentrations of drug was compared to the amount of luciferase produced in infected target host cells in the absence of drug. “Drug resistance” was measured as the amount of drug required to inhibit by 50% the luciferase activity detected in the absence of drug (inhibitory concentration 50%, IC50). The IC50 values were determined by plotting percent drug inhibition vs. log10 drug concentration. Stimulation of viral replication was measured as the percent increase in luciferase activity detected when infection occurs in the presence of drug as compared to in the absence of drug.
(§2) Host cells were seeded in 10-cm-diameter dishes and were transfected several days after plating with resistance test vector plasmid DNA and the envelope expression vector. Transfections were performed using a calcium-phosphate precipitation procedure. The cell culture media containing the DNA precipitate was replaced with fresh medium, from one to 24 hours, after transfection. Cell culture media containing resistance test vector viral particles was harvested one to four days after transfection and was passed through a […] filter before being used to infect target host cells, or being stored at −80° C. HIV capsid protein (p24) levels in the harvested cell culture media were determined by an EIA method as described by the manufacturer (SAIC; Frederick, Md.). Before infection, target cells (293 and 293/T) were plated in cell culture media. Control infections were performed using cell culture media from mock transfections (no DNA) or transfections containing the resistance test vector plasmid DNA without the envelope expression plasmid. One to three or more days after infection, the media was removed and cell lysis buffer (Promega) was added to each well. Cell lysates were assayed for luciferase activity (FIG. 3). The inhibitory effect of the drug was determined using the following equation:
(§3) % luciferase inhibition=1−(RLUluc[drug]÷RLUluc)×100
(§4) where RLUluc [drug] is the Relative Light Unit of luciferase activity in infected cells in the presence of drug, and RLUluc is the Relative Light Unit of luciferase activity in infected cells in the absence of drug. IC50values were obtained from the sigmoidal curves that were generated from the data by plotting the percent inhibition of luciferase activity vs. the log10 drug concentration. The percent luciferase stimulation is the negative of the % inhibition calculated using the formula above.
(§5) A resistance test vector containing two mutations, I135T and V245E (RTV-I135T/V245E) was constructed and tested in the phenotypic assay described earlier. The results were compared to those determined using a genetically defined resistance test vector that was wild type at positions 135 and 245. We determined the pattern of phenotypic susceptibility to the NNRTIs, delavirdine, nevirapine and efavirenz, in RTV-I135T/V245E.

Y181C/M230L-RTV = assay: Phenotypic susceptibility assay, Y181C/M230L-RTV; type: cell-based, HIV-1; conditions: site-directed Y181C + M230L
RTV-013522 = assay: Phenotypic susceptibility assay, RTV-013522; type: cell-based, HIV; conditions: patient 013522; for decrease in susceptibility: K103N, I135T, I270S
Excerpt: as §1, §2, §3, §4
A resistance test vector was constructed as described in Example 1 from a virus sample obtained from patient 013522. The prior and current treatment regimens are unknown. Isolation of viral RNA and RT/PCR was used to generate a patient derived segment (PDS) that comprised viral sequences coding for all of PR and aa 1-313 of RT from all three samples. The PDS were inserted into an indicator gene viral vector to generate a resistance test vector designated RTV-013522. RTV-013522 was then tested in a phenotypic assay to determine accurately and quantitatively the level of susceptibility to a panel of anti-retroviral drugs. […]

RTV-K103N/I135T/V245T = assay: Phenotypic susceptibility assay, RTV-K103N/I135T/V245T; type: cell-based, HIV-1; conditions: site-directed K103N + I135T + V245T
Excerpt: as §1, §2, §3, §4
as §5, with “three” for “two”, “mutations, K103N,” for “mutations,”, “V245T (RTV-K103N/I135T/V245T)” for “V245E (RTV-I135T/V245E)”, “positions 103,” for “positions”, “RTV-K103N.” for “RTV-I135T/V245E.”

RTV-010835 = assay: Phenotypic susceptibility assay, RTV-010835; type: cell-based, HIV; conditions: patient CCTG-2165, week 15; K103N and M230L present
Excerpt: The resistance test vectors containing a functional luciferase gene cassette were constructed and host cells were transfected with the resistance test vector DNA. The resistant test vectors contained patient-derived reverse transcriptase and protease sequences that were either susceptible or resistant to the antiretroviral agents, such as nucleoside reverse transcriptase inhibitors, (NRTIs) non-nucleoside reverse transcriptase inhibitors […] protease inhibitors. The resistance test vector viral particles produced by transfecting the resistance test vector DNA into host cells, either in the presence or absence of PRIs, were used to infect target host cells grown either in the absence of NRTIs or NNRTIs, or in the presence of increasing concentrations of the drug. The amount of luciferase activity produced in infected target host cells in the presence of varying concentrations of drug was compared to the amount of luciferase produced in infected target host cells in the absence of drug. […] The IC50 values were determined by plotting percent drug inhibition vs. log10 drug concentration. Stimulation of viral replication was measured as the percent increase in luciferase activity detected when infection occurs in the presence of drug as compared to in the absence of drug.
Host cells were seeded in 10-cm-diameter dishes and were transfected several days after plating with resistance test vector plasmid DNA and the envelope expression vector. […] HIV capsid protein (p24) levels in the harvested cell culture media were determined by an EIA method as described by the manufacturer (SAIC; Frederick, Md.). […] The inhibitory effect of the drug was determined using the following equation: […]
where RLUluc [drug] is the Relative Light Unit of luciferase activity in infected cells in the presence of drug, and RLUluc is the Relative Light Unit of luciferase activity in infected cells in the absence of drug. […] The percent luciferase stimulation is the negative of the % inhibition calculated using the formula above. […]

RTV-1033-3 = assay: Phenotypic susceptibility assay, RTV-1033-3; type: cell-based, HIV; conditions: single clone from the RTV-1033 pool
Excerpt: as §1, §2, §3, §4
A single clone (RTV-1033-3) was obtained from the patient-derived RTV pool that had mutations and phenotypic patterns of NNRTI susceptibility and drug-dependent stimulation of viral replication characteristic of the RTV-1033 pool. The RTV-1033-3 had the following mutations present in the revere transcriptase: V35I, D67N, T69D, K70R, V106A, D123G, V189L, T200A, I202T, H208Y, R211K, T215F, D218E, K219Q, H221Y, L228H, L283I, R284K, T286A, V293I and E297K.

M230L-RTV = assay: Phenotypic susceptibility assay, M230L-RTV; type: cell-based, HIV-1; conditions: site-directed M230L alone
Excerpt: as §1, §2, §3, §4
The M230L mutation was introduced into a wild-type (drug sensitive) resistance test vector using the mega-primer method for site-directed mutagenesis (Sakar and Sommar, Ibid.). The resulting resistance test vector containing the M230L mutation (M230L-RTV) was then tested using the phenotypic assay described earlier, and the results were compared to those determined using a genetically defined resistance test vector that was wild type at position 230. We determined the pattern of phenotypic susceptibility to the NNRTIs, delavirdine, nevirapine and efavirenz, in the M230L-RTV. […]

Row | SMILES | drug-dependent stimulation of viral replication (RTV-I135T/V245E) | reductions in susceptibility compared to wild type control RTV (RTV-I135T/V245E) [fold] | drug-dependent stimulation of viral replication (Y181C/M230L-RTV) | reduction in susceptibility compared to wild type control RTV (Y181C/M230L-RTV) | drug-dependent stimulation of viral replication (RTV-013522) [%] | decrease in susceptibility (RTV-013522) [fold] | drug-dependent stimulation of viral replication (RTV-K103N/I135T/V245T) [%] | reductions in susceptibility compared to wild type control RTV (RTV-K103N/I135T/V245T) | decrease in susceptibility (RTV-010835) [fold] | drug-dependent stimulation of viral replication (RTV-1033-3) [%] | reductions in susceptibility (RTV-1033-3) [fold] | drug-dependent stimulation of viral replication (M230L-RTV) | reduction in susceptibility compared to wild type control RTV (M230L-RTV)
1 | CC(C)Nc1cccnc1N1CCN(C(=O)c2cc3cc(NS(C)(=O)=O)ccc3[nH]2)CC1 [delavirdine] | no drug-dependent stimulation | 2 | no drug-dependent stimulation | > 250 fold | ~110 | > 250 | ~50 | > 250 fold | > 250 | 190 | 27 | ~50% | 58 fold
2 | O=C1Nc2ccc(Cl)cc2[C@@](C#CC2CC2)(C(F)(F)F)O1 [efavirenz] | no drug-dependent stimulation | 2 | no drug-dependent stimulation | 25 fold | ~100 | > 450 | ~25 | 174 fold | 270 | 180 | > 450 | not | 23 fold
3 | Cc1ccnc2c1NC(=O)c1cccnc1N2C1CC1 [nevirapine] | no drug-dependent stimulation | 2.5 | no drug-dependent stimulation | > 600 fold and > 800 fold | ~90 | > 600 | ~40 | 594 fold and 544 fold | > 600 | 200 | > 600 | ~50% | 39 fold and 40 fold
